Assay results taken from US20240165113A1, “METHODS OF TREATMENT FOR LEUKEMIA” (DNA SEQ 2, Inc., priority 2021, published 2024).
Like-named read-outs stand apart in the source and are kept apart here.

How the values were obtained:
human tumor cells = conditions: growth of human tumor cells; cited from earlier work
[1] = molecular target: T1, phosphorylated ABL1(T315I)(229-499) (Homo sapiens, UniProt P00519, T315I); assay: SPR binding to phosphorylated ABL1(T315I)(229-499); conditions: Ni-NTA capture of 10xHis-tag
T1 construct: The protocol was adapted to generate phosphorylated 10×His-tev-ABL1(T315I)(229-499) for use in the SPR studies; made in house; host or cells: E. coli; autophosphorylated in vitro with ATP/MgCl2
T1 sequence (P00519 229-499 T315I): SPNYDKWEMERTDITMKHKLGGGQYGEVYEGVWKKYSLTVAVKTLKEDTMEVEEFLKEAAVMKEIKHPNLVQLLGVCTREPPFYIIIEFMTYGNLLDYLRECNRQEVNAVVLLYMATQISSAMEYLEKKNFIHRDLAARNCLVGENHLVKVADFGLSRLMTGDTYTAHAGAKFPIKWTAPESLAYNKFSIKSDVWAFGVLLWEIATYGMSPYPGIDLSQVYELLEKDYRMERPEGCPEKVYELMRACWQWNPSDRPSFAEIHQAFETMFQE

Compound: Nc1nc(N)c(N=O)c(OCC2CCCCC2)n1 [A-0001, 6-Cyclohexylmethyloxy-5-nitroso-pyrimidine-2,4-diamine]
- GI50 (human tumor cells): 10 µM
- Kd ([1]; HBST buffer, read-out: Phosphorylated ABL1(T315I)(229-499) in HBST buffer KD): 13 µM
- Kd ([1]; PBST buffer, read-out: Phosphorylated ABL1(T315I)(229-499) in PBST buffer KD): 16 µM
